Assay results reported in patent publication US20080146555A1, “Uses of Kinase Inhibitors and Compositions Thereof” (GPC Biotech, Inc, priority 2004, published 2008).
Values joined by “and” are separate entries in the source; they are usually repeats but may differ in a detail not shown here. Identical values can stand only once. Counter-ions that a name gives are not always drawn. Like-named read-outs stand apart in the source and are kept apart here.

Experiments:
[1] = target: panel of Tyr kinases; assay: Kinase panel, Tyr kinases (average); format: biochemical; settings: average over panel; read-out: average IC50 among Tyr kinases
[2] = tested on: HCT-116 cells; assay: Clonogenic survival assay with HCT-116 cells; format: cell-based; settings: Homo sapiens, 24 hour compound exposure, read-out: Clonogenic survival IC50, HCT-116
Procedure: This assay was used to determine the concentration of a compound that results in irreversible loss of viability after a specified period of exposure. Essentially, cells are exposed to compound for a period of […], and are then transferred to compound-free growth medium. After continued incubation in the compound-free medium for a number of days, the number of colonies recovered is counted as an estimate of the number of surviving cells.
Media (RPMI-1640, 10% FCS, pen/strep) was pre-warmed to 37° C. in a water bath. Cells were incubated and grown at 37° C., 5% CO2. Cells were recovered by trypsinization from sub-confluent plates and counted using a hemocytometer. 1×10^4 cells were plated in 25 mls of media in a 15 cm tissue culture dish. […] were set up for each test compound, and were incubated overnight at 37° C. The compound was diluted into media at 7 concentrations and the media on the cells was replaced with that containing the test compound. Two plates were set up for each concentration of the compound to be tested, as well as two control plates without compound. Plates were incubated as above for […], media was removed and replaced with fresh media, and the plates were incubated an additional 7 days and washed with PBS. Colonies were stained with crystal violet solution (0.4% crystal violet, 20% ethanol) for 5 minutes, washed twice with distilled water, and counted.

[3] = target: T1, AMPK; assay: AMPK kinase assay; format: biochemical, rat
T1 construct: purified from rat-human # = U06454
Procedure: • 1. AMPK Reaction Buffer: 20 mM HEPES-NaOH, pH 7.0, 0.4 mM dithiothreitol, 0.01% Brij-35, with or without 300 μM AMP. • 2. SAMS Substrate Peptide (Catalog #12-355): Use 7 μl per reaction for final assay concentration of 100 μM. • 3. AMP-Activated Protein Kinase: Dilute enzyme to 2-10 mU/μl in AMPK Reaction Buffer with or without 300 μM AMP. AMP can be purchased from Sigma-Aldrich, Catalog #A1752. • 4. [γ-^32P]ATP: Stock 1 mCi/100 μl (3000 Ci/mmol, obtained from PerkinElmer, Cat. # BLU002A). Make 10 μl aliquots (100 μCi/vial). […]
• NOTE: Negative controls should be run with all reagents containing no AMP. • 1. Add 13 μl of Reaction Buffer per assay. • 2. Add 7 μl of SAMS substrate peptide [100 μM final assay concentration]. • 3. Add 10 μl of AMP-Activated Protein Kinase [20-100 mU]. • 4. Add 10 μl of the diluted [^32P]ATP mixture. • 5. Incubate for 15 minutes at 30° C. in a shaking incubator. • 6. Spot 35 μl onto the center of a 2 cm×2 cm P81 paper square. • 7. Wash the assay squares three times with 0.75% phosphoric acid for 5 minutes. • 8. Wash the assay squares once with acetone for 5 minutes. • 9. Transfer the assay squares to vial and add 5 ml scintillation cocktail. • 10. Read in scintillation counter. Compare cpm of enzyme samples to cpm of control samples that contain no enzyme (background control).

[4] = target: Cdk6 (Homo sapiens, UniProt Q00534); assay: Cdk6 inhibition; format: biochemical
Text: Further inhibition results for subject compounds of the invention against other CDKs and further kinases are shown in Table 5, Table II and described in Example 6.
Table 3, Table 4, Table 5 and Table II show the results obtained for inhibition of a broad range of such kinases for subject compounds of the invention.

[5] = target: T2, Fyn (Homo sapiens, UniProt P06241); assay: Fyn kinase assay; format: biochemical
T2 construct: purchased Upstate 14-441
Procedure: • 1. Assay Buffer: 200 mM Tris-HCl pH 7.5, 0.4 mM EGTA, 0.4 mM sodium orthovanadate. • 2. Magnesium/ATP Cocktail (Catalog #20-113): 500 μM cold ATP and 75 mM magnesium chloride in 20 mM MOPS, pH 7.2, 25 mM α-glycerol phosphate, 5 mM EGTA, 1 mM sodium orthovanadate, 1 mM dithiothreitol. • 3. [γ-^32P]ATP: Stock 1 mCi/100 μl (3000 Ci/mmol, obtained from DuPont-NEN). Make 10 μl aliquots (100 μCi/vial). Before starting the assay, dilute an aliquot with 90 μl of Magnesium/ATP Cocktail. • 4. Enzyme Dilution Buffer: 20 mM MOPS pH 7.5, 1 mM EDTA, 0.01% Brij-35, 5% glycerol, 0.1% β-mercaptoethanol, 1 mg/ml BSA. • 5. Fyn: Dilute with Enzyme Dilution Buffer to prepare a 4 ng-40 ng/μl stock. Use 2.5 μl per assay point. • 6. Src Substrate Peptide (Catalog #12-140): Dilute to 2.5 mM with distilled water. Use 2.5 μl per say point.
• 1. Add 6.25 μl of Assay Buffer per assay. • 2. Add 2.5 μl of diluted Fyn. • 3. Add 2.5 μl Src Substrate peptide (250 μM). • 4. Add 3.75 μl distilled water. • 5. Add 10 μl of the [γ-^32P]ATP solution. • 6. Incubate for 10 minutes at 30° C. • 7. Transfer a 20 μl aliquot onto the center of a 2 cm×2 cm P81 paper. • 8. Wash assay squares three times with 0.75% phosphoric acid for 5 minutes per wash. • 9. Wash assay squares once with acetone for 1-2 minutes. • 10. Transfer assay squares to a scintillation vial and add 1 ml scintillation cocktail. • 11. Read in scintillation counter. Compare cpm of enzyme samples to cpm of control samples that contain no enzyme (background control).

[6] = tested on: CEM/C2; assay: SRB cytotoxicity, camptothecin resistant cells; format: cell-based, human; settings: for IC50: Homo sapiens, CEM/C2, 72 h, SRB
Procedure: In these experiments, the P-glycoprotein expressing NCI-Adr resistant subline (Vickers et al., 1989. Mol Endocrinology 3 (1):157-164) was used. […] Briefly, cells were plated in 96 well dishes 24 hours prior to compound addition. Where noted, they were exposed to verapamil for 4 hours prior to compound addition and then throughout the treatment period (72 hours). The assay was terminated with the addition of cold TCA to a final concentration of 10% and the plates were incubated for one hour at 4° C. The plates were then washed 5 times with water and 100 μl of a Sulforhodamine B solution (4%) was added to each well. The plate was then incubated for 10 minutes at room temperature before removal of unbound dye by washing with 1% acetic acid.
The Camptothecin resistant CEM/C2 cells were derived from the T lymphoblastoid leukemia cell line CCRF/CEM by selection in the presence of Camptothecin in vitro (Kapoor et al., 1995. Oncology Research 7; 83-95, ATCC).
The effects of A37 and B16 were evaluated in the CCRF/CEM and CEM/C2 cells using the same SRB assay as described above, with 72-hour drug exposure.

[7] = enzyme purified from rat, read-out: PRKAA2 (AMPK) Inhibition (IC50)
[8] = read-out: FYN Inhibition (IC50)

T2 sequence (P06241 whole entry): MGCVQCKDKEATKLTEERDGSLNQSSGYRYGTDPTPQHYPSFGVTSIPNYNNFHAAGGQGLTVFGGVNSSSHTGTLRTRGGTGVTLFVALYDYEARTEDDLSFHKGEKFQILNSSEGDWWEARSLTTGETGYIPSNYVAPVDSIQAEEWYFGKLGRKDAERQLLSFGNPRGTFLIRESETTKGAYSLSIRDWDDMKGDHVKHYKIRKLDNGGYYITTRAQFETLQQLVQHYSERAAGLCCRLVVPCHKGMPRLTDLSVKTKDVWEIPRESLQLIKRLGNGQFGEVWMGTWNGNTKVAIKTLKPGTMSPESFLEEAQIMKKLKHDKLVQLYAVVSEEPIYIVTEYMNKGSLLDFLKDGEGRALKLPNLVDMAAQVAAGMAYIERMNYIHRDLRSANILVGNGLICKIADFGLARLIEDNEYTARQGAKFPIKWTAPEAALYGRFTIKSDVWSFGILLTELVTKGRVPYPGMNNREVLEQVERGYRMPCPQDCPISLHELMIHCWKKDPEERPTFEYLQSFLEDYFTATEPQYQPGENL
Sequence of Cdk6 (Q00534 whole entry): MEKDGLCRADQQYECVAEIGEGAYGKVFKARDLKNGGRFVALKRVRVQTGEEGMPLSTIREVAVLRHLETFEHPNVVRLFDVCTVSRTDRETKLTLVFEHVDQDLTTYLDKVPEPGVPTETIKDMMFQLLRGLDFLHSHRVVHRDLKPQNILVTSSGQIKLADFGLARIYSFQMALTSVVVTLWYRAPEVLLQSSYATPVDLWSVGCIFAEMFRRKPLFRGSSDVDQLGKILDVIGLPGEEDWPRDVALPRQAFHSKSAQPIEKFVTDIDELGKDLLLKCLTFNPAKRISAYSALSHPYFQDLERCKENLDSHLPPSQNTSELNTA
Sequence of Cdk6 (P30279 whole entry partner): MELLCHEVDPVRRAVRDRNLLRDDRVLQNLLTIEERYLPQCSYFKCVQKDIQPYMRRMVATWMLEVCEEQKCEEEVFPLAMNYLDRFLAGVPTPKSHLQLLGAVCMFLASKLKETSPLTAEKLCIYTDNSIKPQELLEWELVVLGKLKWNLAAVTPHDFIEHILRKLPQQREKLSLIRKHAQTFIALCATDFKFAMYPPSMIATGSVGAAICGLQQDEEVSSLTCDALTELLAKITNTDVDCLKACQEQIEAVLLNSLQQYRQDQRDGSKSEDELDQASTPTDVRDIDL

SMILES | IC50 [1] | IC50 [2] | IC50 [3, 7] | IC50 [4] | IC50 [5, 8] | RR (relative resistance) CEM/C2 vs CEM [6] | IC50 [6] | IC50 ([3]; kinase panel, 10 μM ATP, read-out: AMPK IC50) | IC50 ([5]; kinase panel, 10 μM ATP, read-out: Fyn IC50)
CC(C)N1CCN(C(=O)COc2ccc(-c3n[nH]c4c3C(=O)c3c(NC(=O)NN5CCOCC5)cccc3-4)cc2)CC1 [Compound A37] | ~37 nM and 35.5 nM | < 50 nM | < 100 nM | < 100 nM | < 100 nM | 0.72 | 15.3 nM |  | 
COCCN1CCN(Cc2ccc(-c3n[nH]c4c3C(=O)c3c(NC(=O)NN5CCOCC5)cccc3-4)cc2)CC1 [Compound B16, N-[3-(4-{[4-(2-methoxyethyl)piperazinyl]methyl}phenyl)-4-oxoindeno[2,3-d]pyrazol-5-yl](morpholin-4-ylamino)carboxamide dihydrochloride] | ~55 nM | < 100 nM | < 50 nM | < 50 nM | < 50 nM | 1.01 | 25.3 nM | < 100 nM | < 100 nM
